We go through 17 molecules from US20210022340A1, “USE OF PYRIDINE UREA COMPOUND HAVING SNAIL-KILLING ACTIVITY” (priority 2017, published 2021).

The test system of data set [1] is Oncomelania hupensis. The data set is described as follows: Snail-killing activity against Oncomelania hupensis (immersion method). The format is in vivo. The settings on record: 24 h, 24 hours of immersion, 25° C., linear interpolation, read-out: Oncomelania hupensis the LC50 values at the 24th hour. As to the method: (1): Snail-Killing Activity Against Oncomelania hupensis
Oncomelania hupensis was used as a tested sample and tested by the immersion method. Operation process: Weigh various samples accurately (compounds of any of Example 1 to Example 16), dissolve each sample with 0.2 mL of N,N-dimethylformamide, and dilute each sample to 0.2 mg/L of the drug solution with dechlorinated tap water. Put 30 snails in each beaker and pour 100 ml of the above-mentioned drug solution into each beaker. And cover the plastic gauze on the beaker to prevent the snails from climbing to the liquid surface. Place the above beakers accommodating the drug solution and snails in the incubator under the conditions which is at 25° C. constant temperature, and the humidity is maintained at 60%. and the light is fully. After 24 hours of immersion in the incubator, the drug solution is poured, and each sample is washed for 3 times by using water. Then, 15 mL of dechlorinated tap water is added to resuscitate each sample for 1 hour. Each sample is resuscitated for 1 hour again after 24 hours, and then activity of the snails is determined by knocking after 24 hours. Each sample was set to repeat 3 times. The tested concentrations were respectively 0.1 mg/L, 0.5 mg/L, 1 mg/L, 2 mg/L, 5 mg/L, and 10 mg/L. A linear interpolation method was used to draw a curve of the percentage of death at the 24th hour relative to the tested concentrations of the prepared compounds, thereby the LC50 values at the 24th hour are obtained.
A comparison was made with 0.2 mg/L of niclosamide (positive control) and water containing 0.2 mL/L of N,N-dimethylformamide (blank control).

Data set [2] in a line: Acute toxicity to fish. The data set is classed as in vivo, Danio rerio. The settings on record: Danio rerio, in vivo, pH 7, 96 hour test cycle, 23±1° C., linear interpolation; read-out: Danio rerio the LC50 values at the 96th hour. As for the experimental part:
(§1) (2): Study on Acute Toxicity to Fish
(§2) Tested substance: Compound of any of Example 1 to Example 16 of which tested concentrations were respectively 0 mg/L, 20 mg/L, 40 mg/L, 60 mg/L, 80 mg/L, and 100 mg/L.
(§3) Tested fish species: Danio rerio of which body length was 20±1 mm and weight was 0.3±0.1 g.
(§4) Test process: The tested fish was domesticated in continuous aerated diluted water for 7 days before the test. The water quality and lighting conditions during the domestication were consistent with the conditions during the test. Feeding was stopped 24 hours before the test. […] The water temperature during the test was constant at 23±1° C. The dissolved oxygen content during the test should be higher than 60% of the air saturation value, and the pH value was 7.0±0.2. The test cycle is 96 hours. The poisoning symptoms and mortality of the tested fish were observed and recorded at any time within 3 hours to 6 hours after starting the test, and then the poisoning symptoms and mortality of the tested fish at different concentrations were observed and recorded at 24th hour, 48th hour, 72th hour, and 96th hour. The criterion for judging dead fish is to knock the tail of the fish with glasses. If the fish had no action, it is judged that the fish was dead.
(§5) A linear interpolation method was used to draw the curve of the percentage of death relative to the tested concentrations of the compound prepared in Example 4 at 96 hour, thereby the LC50 values at 96th hour are obtained, which was treated with water as a blank control. The LC50 value of the other compound at 96th hour was obtained in this way.

The test system of data set [3] is Danio rerio. The data set is described as follows: Acute toxicity to fish. The format is in vivo. Particulars: applied for 1 hour.
In data set [4] the test system is Danio rerio. The data set can be described thus: Acute toxicity to fish. Particulars: 96 hour test cycle, 23±1° C., linear interpolation. The format is in vivo. As to the method:
as §1, §2, §3, §4, §5

Converted amounts (≈) assume the structure as drawn.

Take `O=C(Nc1cccnc1)Nc1ccc(F)cc1F` [Compound 1]: the LC50 (as a rule, the concentration lethal to half of the exposed cells or organisms) in data set [1] came out at 5 µg/mL (≈ 20.1 µM). The LC50 at 96 h in data set [2] is more than 100 µg/mL.
Consider `O=C(Nc1ccc(OC(F)(F)F)cc1)Nc1cccnc1` [Compound 2], for which the LC50 in data set [1] stood at 3.5 µg/mL (≈ 11.8 µM). Also, the LC50 at 96 h in data set [2] was more than 100 µg/mL.
Regarding `O=C(Nc1cccnc1)Nc1ccccc1F` [Compound 3], the LC50 in data set [1] was determined as 4.8 µg/mL (≈ 20.8 µM). The LC50 at 96 h in data set [2] was more than 100 µg/mL.
The like results for `O=C(Nc1cccnc1)Nc1cccc(Cl)c1` [Compound 4] were, in that order, 5.8 µg/mL (≈ 23.4 µM) and more than 100 µg/mL.
For the molecule `O=C(Nc1cccnc1)Nc1ccc(F)cc1C(F)(F)F` [Compound 5], the 50% lethal concentration (LC50) in data set [1] stood at 8.9 µg/mL (≈ 29.7 µM). The LC50 at 96 h in data set [2] is more than 100 µg/mL.
For `O=C(Nc1cccnc1)Nc1ccccc1Cl` [Compound 6], in data set [1], the LC50 worked out at 9.2 µg/mL (≈ 37.1 µM). Also, the LC50 at 96 h in data set [2] is more than 100 µg/mL.
With `O=C(Nc1cccnc1)Nc1ccc(Cl)cc1C(F)(F)F` [Compound 7], the LC50 in data set [1] turned out to be 6.7 µg/mL (≈ 21.2 µM). In addition, the LC50 at 96 h in data set [2] was more than 100 µg/mL.
Taken in the same sequence, the figures for `O=C(Nc1cccnc1)Nc1ccc(Cl)cc1Cl` [Compound 8] were 5.8 µg/mL (≈ 20.6 µM) and more than 100 µg/mL.
For `O=C(Nc1cccnc1)Nc1cc(F)cc(F)c1` [Compound 9], the LC50 in data set [1] was 4.3 µg/mL (≈ 17.3 µM). Besides, the LC50 at 96 h in data set [2] is more than 100 µg/mL.
As for `O=C(Nc1ccc([N+](=O)[O-])cc1)Nc1cccnc1` [Compound 10], in data set [1], the LC50 amounted to 3.8 µg/mL (≈ 14.7 µM). The LC50 at 96 h in data set [2] is more than 100 µg/mL.
Taken in the same sequence, the figures for `O=C(Nc1cccnc1)Nc1cccc(F)c1` [Compound 11] were 4.9 µg/mL (≈ 21.2 µM) and more than 100 µg/mL.
The like results for `Cc1cccc(NC(=O)Nc2cccnc2)c1` [Compound 12] were, in that order, 8.2 µg/mL (≈ 36.1 µM) and more than 100 µg/mL.
In the case of `O=C(Nc1ccc(Br)cc1)Nc1cccnc1` [Compound 13], the median lethal concentration (LC50) in data set [1] is approximately 0.5 µg/mL (≈ 1.71 µM). Besides, in data set [2], the LC50 at 96 h was found to be 15 µg/mL (≈ 51.3 µM).
The like results for `O=C(Nc1ccc(Cl)cc1)Nc1cccnc1` [Compound 14] were, in that order, approximately 0.5 µg/mL (≈ 2.02 µM) and 15 µg/mL (≈ 60.6 µM).
Consider `Cc1ccccc1NC(=O)Nc1cccnc1` [Compound 15], for which the LC50 in data set [1] is 7.2 µg/mL (≈ 31.7 µM). Besides, in data set [2], the LC50 at 96 h was more than 100 µg/mL.
Consider `Cc1ccc(NC(=O)Nc2cccnc2)cc1` [Compound 16], for which the LC50 in data set [1] was found to be 8.1 µg/mL (≈ 35.6 µM). Moreover, in data set [2], the LC50 at 96 h is more than 100 µg/mL.
As for `O=C(Nc1ccc([N+](=O)[O-])cc1Cl)c1cc(Cl)ccc1O` [niclosamide, reference compound], in data set [3], the fish death entry is on record as “all fish is resulted in almost death”. Moreover, the LC50 in data set [1] worked out at 0.6 µg/mL (≈ 1.83 µM). Also, the LC50 at 96 h in data set [2] was found to be 0.21 µg/mL (≈ 0.642 µM). Also, the “Danio rerio the LC50 values at the 96th hour” value in data set [4] came to 0.2 µg/mL.
